Laboratory results published in patent US9056110B2, “Substituted pyrimidinone-phenyl-pyrimidinyl compounds” (Confluence Life Sciences, Inc., priority 2011, dated 2015).

What was measured:
[1] = system: TNFα; test: LPS stimulated TNFα production in human PBMCs (ELISA); assay type: cell-based; conditions: PBMC, LPS 0.1 μg/ml, 18-24 hours, read-out: PBMC Cell, TNFα IC50
Procedure: Evaluation of the potency and efficacy of p38 inhibitors to block cytokine production is carried out using the human U937 cell line and purified human PBMCs (peripheral blood mononuclear cells). The U937 human pre-monocytic cell line is obtained from the American Type Culture Collection (Rockville, Md.). These cells are differentiated to a monocytic/macrophage phenotype as described by Burnette (Burnette et al., (2009). SD0006: a potent, selective and orally available inhibitor of p38 kinase, Pharmacology 84(1):42-60). Differentiated U937 cells are seeded into 96-well tissue culture plates (200,000 cells/well) in complete media. After 24 hours, the cells are pretreated for 60 minutes in the presence or absence of compound and then stimulated with LPS (lipopolysaccharide) (0.1 μg/mL) for 4 hours. Culture media are then collected for determination of TNFα or IL-6 levels by ELISA. Human PBMCs are isolated from leukopacks as described by Burnette (Burnette et al., (2009), op. cit.). The cells are seeded into 96-well tissue culture plates (200,000 cells/well) in complete media. After a one hour recovery period at 37° C., 5% CO2, the cells are pretreated for 60 minutes in the presence or absence of compound and then stimulated with LPS (0.1 μg/ml) for 18-24 hours. Culture media are then collected for determination of TNFα and IL1β by ELISA. Cytokine concentrations are extrapolated from recombinant protein standard curves using a four-parameter logistic model and solving for IC50 after iterating to the best least-squares fit. p38 inhibitors will show a dose dependent inhibition of LPS stimulated TNFα, and IL6 in differentiated U937 cells and a dose dependent inhibition of LPS stimulated TNFα, IL6 and IL1b in human PBMCs. As drugs that down-regulate TNFα, IL6 and IL1b are efficacious in a number of autoimmune, autoinflammatory inflammatory, cardiovascular and oncological diseases, it would be expected that p38 drugs that inhibit these cytokines and other enzymes and mediators of disease will be effective drugs. Species compounds of Formula (I), described hereinabove, evaluated in this assay, are expected to provide a therapeutic benefit in the treatment of p38 kinase mediated diseases, including lymphoma and inflammation.

[2] = molecular target: p38α/MK2 (Homo sapiens, UniProt Q16539); test: p38α/MK2 cascade assay (IMAP, Hsp27 peptide phosphorylation); assay type: biochemical; conditions: for IC50: p38α/MK2 cascade, Hsp27 peptide 1 μM, MgATP 10 μM, 120 minutes, read-out: p38/MK2 IC50; for Selectivity Ratio: ratio of p38α/PRAK:p38α/MK2 IC50 values
Chain of p38α/MK2 (Q16539 whole entry): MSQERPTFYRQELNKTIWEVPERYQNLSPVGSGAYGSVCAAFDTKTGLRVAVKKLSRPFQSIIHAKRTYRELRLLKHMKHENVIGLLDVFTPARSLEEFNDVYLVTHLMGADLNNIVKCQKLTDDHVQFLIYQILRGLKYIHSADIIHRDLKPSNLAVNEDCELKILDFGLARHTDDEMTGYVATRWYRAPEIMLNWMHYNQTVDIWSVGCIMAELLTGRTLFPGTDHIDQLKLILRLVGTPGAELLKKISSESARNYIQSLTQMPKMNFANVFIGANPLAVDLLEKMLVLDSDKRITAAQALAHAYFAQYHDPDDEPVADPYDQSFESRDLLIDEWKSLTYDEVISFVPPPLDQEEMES
Chain of p38α/MK2 (P49137 whole entry partner): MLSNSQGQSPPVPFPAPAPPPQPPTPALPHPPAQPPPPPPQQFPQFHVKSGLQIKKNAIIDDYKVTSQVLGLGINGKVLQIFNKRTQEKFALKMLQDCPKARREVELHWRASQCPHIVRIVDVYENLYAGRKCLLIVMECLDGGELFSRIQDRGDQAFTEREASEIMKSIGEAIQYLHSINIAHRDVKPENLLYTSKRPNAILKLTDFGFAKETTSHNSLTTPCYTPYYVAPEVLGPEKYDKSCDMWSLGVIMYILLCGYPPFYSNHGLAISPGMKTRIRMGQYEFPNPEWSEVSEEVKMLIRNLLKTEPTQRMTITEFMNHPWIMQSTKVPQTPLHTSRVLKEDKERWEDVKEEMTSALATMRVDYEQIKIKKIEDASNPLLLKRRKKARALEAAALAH
Procedure: (§1) P38 inhibitory potency and P38/MK2 substrate selectivity: The novel, MK2 substrate-selective inhibitory mechanism of compounds is evaluated in enzyme assays that compare inhibitor potency in blocking p38/MK2 versus p38/PRAK induced phosphorylation of an HSP-27 derived peptide substrate. The ability of compounds to inhibit activated phospho-p38α is evaluated using a p38α/MK2 and a p38α/PRAK cascade assay format. The kinase activity of p38α is determined by its ability to phosphorylate and activate GST-MK2 or GST-PRAK. The kinase activity of activated MK2 and PRAK is followed by measuring the phosphorylation of a fluorescently-labeled, peptide substrate based on the sequence of Hsp27 (FITC-KKKALSRQLSVAA). The phosphorylation of the Hsp27 peptide is quantified using IMAP assay technology (Molecular Devices) and the Analyst HT plate reader (LJL Biosystems). Kinase reactions are carried out in a 384-well plate (Corning 3575) in 20 mM HEPES pH 7.5, 10 mM MgCl2, 0.0005% Tween-20, 0.01% BSA, 1 mM DTT, and 2% DMSO. The inhibitor concentration varies between 0.5-30,000 nM, while the Hsp27 peptide substrate and MgATP are held constant at 1 μM and 10 μM, respectively. Activated p38α is added to a final concentration of 20 pM for reactions with 1 nM nonphosphorylated 1 nM GST-MK2. For the p38α/PRAK cascade, unactivated GST-PRAK is held constant at 10 nM while p38α is added to a final concentration of […]. Kinase reactions are incubated at room temperature and quenched after 120 minutes by the addition of 1× Progressive Binding Buffer A containing 1×IMAP beads (IMAP FP Progressive Screening Express Kit, Molecular Devices Catalog Number R8127). Inhibitor potency is calculated by fitting dose-response data to the 4-parameter logistical IC50 equation. The substrate selectivity is calculated as a ratio of p38α/PRAK:p38α/MK2 IC50 values. A substrate selective inhibitor will have a p38α/PRAK:p38α/MK2 IC50 ratio of >2 while a classical p38 inhibitor will have a ratio of between 0.5-2. […] By way of example, the enhanced therapeutic benefit could be associated with a reduction in inhibition of p38 mediated anti-inflammatory functions, such as IL-10 production and TAB1 phosphorylation. An increased safety profile is expected based, for example, on a reduced inhibition of p38 substrates, such as PPARg and CDC25 phosphatase and PLA2 involved in gluconeogenesis and cell cycle regulation, respectively.

[3] = molecular target: p38α/PRAK (Homo sapiens, UniProt Q16539); test: p38α/PRAK cascade assay (IMAP, Hsp27 peptide phosphorylation); assay type: biochemical; conditions: Hsp27 peptide 1 μM, MgATP 10 μM, 120 minutes, read-out: p38/PRAK IC50
Chain of p38α/PRAK (Q16539 whole entry): as the sequence (Q16539 whole entry) above
Procedure: as §1

Row | IC50 [1] | IC50 [2] | Selectivity Ratio [2] | IC50 [3] | SMILES
1 | 118 nM | 76 nM | 17.9 | 1360 nM | Cc1nc(COc2nc(C)n(-c3cc(-c4ccnc(C(C)(C)O)n4)ccc3C)c(=O)c2Cl)cs1 [Example 12, 5-chloro-3-(5-(2-(2-hydroxypropan-2-yl)pyrimidin-4-yl)-2-methylphenyl)-2-methyl-6-((2-methylthiazol-4-yl)methoxy)pyrimidin-4(3H)-one]
2 | 140 nM | 83 nM | 15.4 | 1280 nM | Cc1cccc(COc2nc(C)n(-c3cc(-c4ccnc(C(C)(C)O)n4)ccc3C)c(=O)c2Br)n1 [Example 13, 5-bromo-3-(5-(2-(2-hydroxypropan-2-yl)pyrimidin-4-yl)-2-methylphenyl)-2-methyl-6-((6-methylpyridin-2-yl)methoxy)pyrimidin-4(3H)-one]
3 | 70 nM | 52 nM | 23.6 | 1230 nM | Cc1cccc(COc2nc(C)n(-c3cc(-c4ccnc(C(C)(C)O)n4)ccc3C)c(=O)c2Cl)n1 [Example 15, (−)-5-chloro-3-(5-(2-(2-hydroxypropan-2-yl)pyrimidin-4-yl)-2-methylphenyl)-2-methyl-6-((6-methylpyridin-2-yl)methoxy)pyrimidin-4(3H)-one]
4 | 3750 nM | 1700 nM | >17.6 | > 30000 nM | Cc1ccc(-c2ccnc(C(C)(C)O)n2)cc1-n1c(C)nc(OCc2cccc(C(F)(F)F)n2)c(Cl)c1=O [Example 17, 5-chloro-3-(5-(2-(2-hydroxypropan-2-yl)pyrimidin-4-yl)-2-methylphenyl)-2-methyl-6-((6-(trifluoromethyl)pyridin-2-yl)methoxy)pyrimidin-4(3H)-one]
5 | 624 nM | 579 nM | 13.3 | 7690 nM | Cc1ccc(-c2ccnc(C(C)(C)O)n2)cc1-n1c(C)nc(OCc2cccc(F)n2)c(Cl)c1=O [Example 18, 5-chloro-6-((6-fluoropyridin-2-yl)methoxy)-3-(5-(2-(2-hydroxypropan-2-yl)pyrimidin-4-yl)-2-methylphenyl)-2-methylpyrimidin-4(3H)-one]
6 | 96 nM | 33 nM | 7.63 | 252 nM | Cc1ccc(-c2ccnc(C(C)(C)O)n2)cc1-n1c(C)nc(OCc2ncc(F)cc2F)c(Cl)c1=O [Example 21, (−)-5-chloro-6-((3,5-difluoropyridin-2-yl)methoxy)-3-(5-(2-(2-hydroxypropan-2-yl)pyrimidin-4-yl)-2-methylphenyl)-2-methylpyrimidin-4(3H)-one]
7 | 215 nM | 386 nM | 15.1 | 5820 nM | Cc1ccc(-c2ccnc(C(C)(C)O)n2)cc1-n1c(C)nc(OCc2ccc(F)c(C)c2F)c(Cl)c1=O [Example 22, 5-chloro-6-(2,4-difluoro-3-methyl-benzyloxy)-3-{5-[2-(1-hydroxy-1-methyl-ethyl)-pyrimidin-4-yl]-2-methyl-phenyl}-2-methyl-3H-pyrimidin-4-one]
8 | 74 nM | 44 nM | 11.7 | 514 nM | Cc1cc(COc2nc(C)n(-c3cc(-c4ccnc(C(C)(C)O)n4)ccc3C)c(=O)c2Cl)c(F)cc1F [Example 23, 5-chloro-6-((2,4-difluoro-5-methylbenzyl)oxy)-3-(5-(2-(2-hydroxypropan-2-yl)pyrimidin-4-yl)-2-methylphenyl)-2-methylpyrimidin-4(3H)-one]
